Reference: the NIST ThermoML archive (doi:10.1016/j.jct.2013.09.010)
Several values for one entry are separate records, joined by “and”; a condition that tells them apart may be missing. Equal values may be shown once.

Tests used:
[1] = Liquid, Vibrating tube method
[2] = molar heat capacity at constant pressure; conditions: 101 kPa, Liquid, Small sample (50 mg) DSC

CCCCC(=O)[O-].C[NH2+]CCO [2-hydroxy-N-methylethanaminium pentanoate]
mass density [kg/m3], [1]
Conditions | 298.15 K | 308.15 K | 318.15 K | 328.15 K | 338.15 K | 348.15 K | 358.15 K
100 kPa | 1009.33 | 1002.78 | 996.28 | 989.85 | 983.48 | 977.17 | 970.92
5000 kPa | 1011.62 | 1005.23 | 998.89 | 992.6 | 986.35 | 980.15 | 974
10000 kPa | 1014.08 | 1007.73 | 1001.45 | 995.24 | 989.11 | 983.05 | 977.05
15000 kPa | 1016.41 | 1010.14 | 1003.96 | 997.85 | 991.83 | 985.88 | 980.01
20000 kPa | 1018.67 | 1012.49 | 1006.39 | 1000.37 | 994.43 | 988.57 | 982.79
25000 kPa | 1020.85 | 1014.74 | 1008.72 | 1002.79 | 996.97 | 991.23 | 985.59

[2]
Conditions | molar heat capacity at constant pressure
283.15 K | 384.8 J/K/mol
287.15 K | 396.1 J/K/mol and 394.2 J/K/mol
288.15 K | 395.6 J/K/mol [middle of 5 runs]
289.15 K | 396 J/K/mol [middle of 4 runs]
290.15 K | 396.8 J/K/mol [middle of 4 runs]
291.15 K | 397.4 J/K/mol [middle of 4 runs]
292.15 K | 397.9 J/K/mol [middle of 4 runs]
293.15 K | 397.7 J/K/mol [middle of 5 runs]
294.15 K | 398.4 J/K/mol [middle of 4 runs]
295.15 K | 399 J/K/mol [middle of 4 runs]
296.15 K | 399.3 J/K/mol and 397.9 J/K/mol and 400.7 J/K/mol
297.15 K | 400 J/K/mol [middle of 4 runs]
298.15 K | 400.6 J/K/mol [middle of 4 runs]
299.15 K | 402.3 J/K/mol and 401.1 J/K/mol and 399.5 J/K/mol
300.15 K | 401.8 J/K/mol [middle of 4 runs]
301.15 K | 402.3 J/K/mol [middle of 4 runs]
302.15 K | 402.7 J/K/mol [middle of 4 runs]
303.15 K | 402.3 J/K/mol [middle of 5 runs]
304.15 K | 403.2 J/K/mol [middle of 4 runs]
305.15 K | 403.6 J/K/mol [middle of 4 runs]
306.15 K | 405 J/K/mol and 403 J/K/mol and 402.3 J/K/mol
307.15 K | 402.7 J/K/mol
308.15 K | 401.6 J/K/mol and 403 J/K/mol
309.15 K | 403.4 J/K/mol
310.15 K | 403.8 J/K/mol
311.15 K | 404.3 J/K/mol
312.15 K | 404.6 J/K/mol
313.15 K | 405 J/K/mol and 405.2 J/K/mol
314.15 K | 405.5 J/K/mol
315.15 K | 405.7 J/K/mol
316.15 K | 406.1 J/K/mol
317.15 K | 406.1 J/K/mol
318.15 K | 408.9 J/K/mol and 406.4 J/K/mol
319.15 K | 406.8 J/K/mol
320.15 K | 407.1 J/K/mol
321.15 K | 407.5 J/K/mol
322.15 K | 407.8 J/K/mol
323.15 K | 412.8 J/K/mol and 408.2 J/K/mol
324.15 K | 408.5 J/K/mol
325.15 K | 408.9 J/K/mol
328.15 K | 416.7 J/K/mol
333.15 K | 420.6 J/K/mol

CCC(=O)[O-].C[NH2+]CCO [2-hydroxy-N-methylethanaminium propionate]
mass density [kg/m3], [1]
Conditions | 100 kPa | 2000 kPa | 3000 kPa | 5000 kPa | 10000 kPa | 15000 kPa | 20000 kPa | 25000 kPa
298.15 K | 1065.75 | 1066.51 | 1066.95 | 1067.8 | 1069.86 | 1071.89 | 1073.87 | 1075.79
303.15 K | 1062.59 | 1063.37 | 1063.82 | 1064.69 | 1066.79 | 1068.87 | 1070.88 | 1072.86
308.15 K | 1059.41 | 1060.21 | 1060.67 | 1061.55 | 1063.7 | 1065.82 | 1067.88 | 1069.9
313.15 K | 1056.21 | 1057.03 | 1057.51 | 1058.4 | 1060.6 | 1062.76 | 1064.86 | 1066.92
318.15 K | 1052.99 | 1053.83 | 1054.32 | 1055.23 | 1057.47 | 1059.68 | 1061.82 | 1063.93
323.15 K | 1049.76 | 1050.61 | 1051.11 | 1052.04 | 1054.32 | 1056.58 | 1058.76 | 1060.91
328.15 K | 1046.5 | 1047.37 | 1047.89 | 1048.84 | 1051.16 | 1053.47 | 1055.68 | 1057.87
333.15 K | 1043.23 | 1044.11 | 1044.64 | 1045.61 | 1047.97 | 1050.33 | 1052.59 | 1054.82
338.15 K | 1039.93 | 1040.84 | 1041.38 | 1042.36 | 1044.77 | 1047.17 | 1049.47 | 1051.74
343.15 K | 1036.62 | 1037.54 | 1038.1 | 1039.1 | 1041.55 | 1043.99 | 1046.33 | 1048.65
348.15 K | 1033.29 | 1034.23 | 1034.8 | 1035.81 | 1038.3 | 1040.8 | 1043.17 | 1045.54
353.15 K | 1029.94 | 1030.9 | 1031.48 | 1032.51 | 1035.04 | 1037.58 | 1040 | 1042.4
358.15 K | 1026.57 | 1027.55 | 1028.14 | 1029.19 | 1031.76 | 1034.35 | 1036.8 | 1039.25

[2]
Conditions | molar heat capacity at constant pressure
287.15 K | 322.8 J/K/mol
288.15 K | 324.3 J/K/mol and 323.1 J/K/mol and 322.8 J/K/mol
289.15 K | 324.5 J/K/mol [middle of 4 runs]
290.15 K | 324.8 J/K/mol [middle of 5 runs]
291.15 K | 324.9 J/K/mol [middle of 5 runs]
292.15 K | 325.7 J/K/mol [middle of 5 runs]
293.15 K | 326.1 J/K/mol [middle of 5 runs]
294.15 K | 326.6 J/K/mol [middle of 4 runs]
295.15 K | 327 J/K/mol [middle of 4 runs]
296.15 K | 327.2 J/K/mol [middle of 4 runs]
297.15 K | 327.5 J/K/mol [middle of 5 runs]
298.15 K | 327.9 J/K/mol [middle of 4 runs]
299.15 K | 328.2 J/K/mol [middle of 5 runs]
300.15 K | 328.7 J/K/mol [middle of 5 runs]
301.15 K | 329.1 J/K/mol [middle of 5 runs]
302.15 K | 329.4 J/K/mol [middle of 5 runs]
303.15 K | 329.7 J/K/mol [middle of 5 runs]
304.15 K | 329.9 J/K/mol [middle of 4 runs]
305.15 K | 330 J/K/mol [middle of 4 runs]
306.15 K | 330.7 J/K/mol and 330.2 J/K/mol and 329.6 J/K/mol
307.15 K | 329.9 J/K/mol
308.15 K | 330.2 J/K/mol
309.15 K | 330.5 J/K/mol
310.15 K | 330.9 J/K/mol
311.15 K | 331.2 J/K/mol
312.15 K | 331.6 J/K/mol
313.15 K | 332.1 J/K/mol
314.15 K | 332.4 J/K/mol
315.15 K | 332.7 J/K/mol
316.15 K | 332.8 J/K/mol
317.15 K | 333 J/K/mol
318.15 K | 333.1 J/K/mol
319.15 K | 333.4 J/K/mol
320.15 K | 333.6 J/K/mol
321.15 K | 333.9 J/K/mol
322.15 K | 334 J/K/mol
323.15 K | 334.5 J/K/mol
324.15 K | 334.9 J/K/mol
325.15 K | 335.4 J/K/mol
326.15 K | 335.8 J/K/mol
